“Also recorded” adds a separate entry of the source. Like-named read-outs stand apart in the source and are kept apart here.

For data set [1], the system named is total insulin and C-peptide. In words: Fasting total insulin and C-peptide in 52-week clinical study. The format is in vivo, patients. The following applies: for C-Peptide, Adjusted Mean Change From Baseline (SE) / Total Insulin, Adjusted Mean Change From Baseline (SE) / C-Peptide, Adjusted Mean Difference From Glyburide / Total Insulin, Adjusted Mean Difference From Glyburide: ITT, Week 52; for C-Peptide, Adjusted Mean Difference From Glyburide / Total Insulin, Adjusted Mean Difference From Glyburide: *p ≤ 0.05. As to the method: This was a 12-month, double-blind, randomized, parallel-group, active-control, multicenter study design (FIG. 1). […] Secondary efficacy parameters included markers of glycemic homeostasis (insulin and C-peptide) and markers of lipid metabolism (total cholesterol, total triglycerides, HDL, VLDL, LDL (measured), free fatty acids, Lp(a), Apo A1, and Apo B). Efficacy analysis was performed on 2 patient populations, intent-to-treat and completers. […] Patients withdrawing from the study before Week 52 were included in the analysis using the LOCF procedure; the last measurement on treatment was substituted for the missing Week 52 measurement. The intent-to-treat patient sample was the primary sample for assessing efficacy. Completers comprised patients in the intent-to-treat sample who completed Week 52. The analysis of change from baseline to Week 52 was performed using analysis of covariance (ANCOVA). The primary model included effects due to treatment and center and baseline as covariate. Treatment-by-baseline and treatment-by-center interactions were also examined in supplemental models.

Data set [2] can be described thus: Body weight in clinical study. The format is in vivo, patients. The following applies: Month 12; for Body weight, Adjusted Mean Change From Baseline (SE): ITT; for mean decrease in body weight from baseline: monotherapy (troglitazone: range over doses). An excerpt: This was a 12-month, double-blind, randomized, parallel-group, active-control, multicenter study design (FIG. 1). […] Patients were instructed to fast overnight prior to visits requiring specimen collection.

Data set [3] is described as follows: Safety: adverse events and clinical laboratory measurements. The format is in vivo, patients. Here is the method: A complete physical examination and ECG were performed during screening and at the end of the study. Clinical laboratory parameters and vital signs including blood pressure were monitored throughout the study for safety reasons. Adverse events were recorded during clinic visits and evaluated by the investigator for intensity and relationship to study drug. Reduction in the daily dose of micronized glyburide could occur in cases of documented hypoglycemia.
All patients randomized to treatment were included in all safety evaluations.
Hypoglycemia, defined as an FSG <50 mg/dL (verified laboratory value), was to be recorded as an adverse event.
Adverse events that were treatment emergent (not present at baseline) are summarized in the following section using a modified COSTART dictionary. If, however, an adverse event present at baseline increased in intensity or frequency during treatment, the event was included in the summaries. Each patient reporting an adverse event was counted only once for that event regardless of the number of times the adverse event was reported. Associated adverse events were those considered by the investigator to be possibly, probably, or definitely related to study therapy.
Baseline clinical laboratory parameters were compared with values at the end of the study (last visit) to identify any abnormal trends. The percent of patients with increases or decreases in laboratory values were calculated based on the number of patients at risk for changes outside of the reference range; i.e., patients with low or high values at baseline were not considered at risk for a decrease or increase, respectively.
Laboratory results were then reviewed for these particular patients to determine which patients actually had clinically important changes in a given laboratory parameter.

The conditions of data set [4]: patients studied to date; cited from earlier work.
Data set [5] concerns postprandial glucose tolerance. In words: 2-hour meal tolerance test (postprandial glucose, insulin, C-peptide AUC). The following applies: Month 12, vs glyburide, p ≤0.05; all combination doses and 600 mg troglitazone monotherapy. The format is in vivo, patients.
Method: The effect of treatment on the pattern of postprandial glucose tolerance (standard 2-hour meal tolerance test) was determined in a subset of patients.
A 2-hour meal tolerance test to assess postprandial glucose and insulin excursions in response to a premeasured meal (breakfast) was conducted in a subset of patients at baseline, Week 24, and at the end of treatment. […] Additional parameters included total insulin and C-peptide. Analyses of the meal tolerance parameters were based on observations at the end of treatment; observations from Week 24 were not carried forward.
Summary statistics for glucose, insulin, and C-peptide levels every 30 minutes for 2 hours were provided at baseline, and Months 6 and 12.
The change from baseline in each response variable was compared between treatment groups using analysis of covariance. The analysis included all patients who had baseline and Month 12 test data. The primary model included effects due to treatment and center and baseline as covariate. The 95% confidence interval for the treatment difference based on the primary model was provided for each pairwise comparison of treatment groups.
Meal tolerance testing was performed in a subset of patients at baseline and at Months 6 and 12. Postprandial glucose, insulin, and C-peptide levels were determined at 30, 60, 90, and 120 minutes after a standard meal (Sustacal HC) (Table 13).
The nature of data set [6]: Trough plasma concentrations of troglitazone. The conditions noted are these: Week 12; for concentration at 2016 h: human, plasma, po, alone or + glyburide, read-out: Mean (% RSD) Trough Plasma Concentration of Troglitazone. The format is in vivo, patients. Here is the method:
Trough plasma concentrations of troglitazone were determined at Week 12. Blood samples (7 mL) were collected in heparinized glass tubes. Following centrifugation, plasma samples were transferred to plastic tubes and stored at -20° C. until assayed. Plasma samples were assayed at Corning Hazleton, Inc., PO Box 7545, Madison, Wis., 53707, using a validated liquid chromatographic method with electrochemical detection. The minimum quantitation limit for troglitazone was 5 ng/mL. Concentrations below the limit of quantitation were reported as zero. The analysts remained blinded to the treatment randomization code during sample analysis.

[7] abbreviates: glyburide monotherapy (active control).
Where [8] appears, read: troglitazone 200 mg, or 200 mg/12 mg in combination.
Where [9] appears, read: troglitazone 400 mg, or 400 mg/12 mg in combination.
Where [10] appears, read: troglitazone 600 mg, or 600 mg/12 mg in combination.
Setting [11] is: Week 52, compared with glyburide.

On to `COc1ccc(Cl)cc1C(=O)NCCc1ccc(S(=O)(=O)NC(=O)NC2CCCCC2)cc1` [Glyburide], for which, in data set [1] (setting [7]), the “C-Peptide, Adjusted Mean Change From Baseline (SE)” value is -0.67 (0.07) ng/mL and the “Total Insulin, Adjusted Mean Change From Baseline (SE)” value is given as -1.45 (1.39) μIU/mL. Moreover, the “Body weight, Adjusted Mean Change From Baseline (SE)” value in data set [2] (glyburide (active control)) is listed as -1.3 lbs. For the same compound, the “mean decrease in body weight from baseline” value in data set [2] came to 1 lbs. Further, in data set [3] (overall, all doses), the “associated adverse events, incidence” value was 10% and the “patients with adverse events” value is 90%.

Regarding `Cc1c(C)c2c(c(C)c1O)CCC(C)(COc1ccc(CC3SC(=O)NC3=O)cc1)O2` (stereo not shown) [Troglitazone], the “C-Peptide, Adjusted Mean Change From Baseline (SE)” value in data set [1] (setting [8]) was -0.96 (0.07) ng/mL; in data set [1] (setting [9]), -0.78 (0.07) ng/mL; in data set [1] (setting [10]), -1.01 (0.08) ng/mL. Besides, the results for the “Total Insulin, Adjusted Mean Change From Baseline (SE)” value in data set [1] (setting [8]), in data set [1] (setting [9]) and in data set [1] (setting [10]) were -8.41 (1.39) μIU/mL, -5.90 (1.40) μIU/mL and -11.53 (1.42) μIU/mL, respectively. Moreover, the “C-Peptide, Adjusted Mean Difference From Glyburide” value is 0.29 ng/mL in data set [1] (setting [8]), -0.11 ng/mL in data set [1] (setting [9]) and 0.34 ng/mL in data set [1] (setting [10]). In addition, the entries for the “Total Insulin, Adjusted Mean Difference From Glyburide” value in data set [1] (setting [8]), in data set [1] (setting [9]) and in data set [1] (setting [10]) were -6.96 μIU/mL, -4.44 μIU/mL and -10.07 μIU/mL, respectively. In addition, the “C-peptide (result in words)” value in data set [1] (setting [11]) was “Significant (p≤0.05) decreases in C-peptide were observed for troglitazone monotherapy only (200 and 600 mg troglitazone)”. Also, the “total insulin (result in words)” value in data set [1] (setting [11]) is “significant (p≤0.05) decrease in total insulin compared with glyburide”. In addition, in data set [1] (completers, 400 and 600 mg troglitazone, p<0.05 vs glyburide), the “total insulin, completers (result in words)” value is given as “decreases in total insulin that were significantly different from glyburide (p<0.05)”. In addition, the “hypoglycemia (result in words)” value in data set [4] is on record as “has not caused hypoglycemia”. The “mean glucose AUC(0-2 hr) (result in words)” value in data set [5] is listed as “decreased significantly (p ≤0.05) compared with glyburide”. For the same compound, the “Body weight, Adjusted Mean Change From Baseline (SE)” value in data set [2] (troglitazone 200 mg, or 200/12 mg in combination) is reported as -6.9 lbs; in data set [2] (troglitazone 400 mg, or 400/12 mg in combination) it was -3.9 lbs; in data set [2] (troglitazone 600 mg, or 600/12 mg in combination) it was -0.8 lbs. In addition, the “mean decrease in body weight from baseline” value in data set [2] fell in the range of 1 to 7 lbs. Besides, in data set [3] (200 mg monotherapy), the “patients with mildly elevated liver enzymes (<3×upper normal limit) at end of study” value is recorded as “one”. In addition, in data set [3] (human, in vivo), the “adverse event profile versus glyburide monotherapy (result in words)” value is “Most adverse events occurred at the lower incidence in patients treated with troglitazone monotherapy compared with the patients treated with glyburide monotherapy”. The “hematological parameters (result in words)” value in data set [3] (human, in vivo) is “no patient experienced clinically important decreases in any hematological parameter that can be directly attributable to troglitazone”. Also, in data set [3] (overall, all doses), the “patients with adverse events” value is listed as 70%. In addition, the “patients with mildly transient decreases in hemoglobin/hematocrit which returned to baseline” value in data set [3] (remaining on drug, mono: two on 400 mg, one on 600 mg, combination: three on 400 mg/12 mg, one on 600 mg/12 mg) was 3 patients. In data set [3] (throughout the study), the “tolerability (result in words)” value was “well-tolerated throughout the study; also recorded: well-tolerated during the study”. Further, the “trough plasma troglitazone concentrations (result in words)” value in data set [6] (dose dependence, mono versus combination) is reported as “Mean trough troglitazone concentrations generally increased with increasing troglitazone doses”. Also, the figures for the concentration at 2016 h in data set [6] (200 mg QD), in data set [6] (400 mg QD) and in data set [6] (600 mg QD) were 145 ng/mL, 238 ng/mL and 285 ng/mL, respectively.

(Values after patent publication US5859037A, “Sulfonylurea-glitazone combinations for diabetes” (Warner-Lambert Company, priority 1997, dated 1999).)
